Test results as given in patent US5616618A, “Threo-3-(3,4-dihydroxyphenyl)serine analgesic composition” (priority 1993, dated 1997).
Entries after “also recorded” stand apart in the source; their conditions may differ.

Key:
[1] = cited from earlier work
[2] = tested on: mice; assay: Effect of naloxone on L-threo-DOPS antinociception, tail flick test; format: in vivo; conditions: for type of analgesic activity: from naloxone tests (tail flick and kaolin)
Description: (§1) Antagonistic Effect of L-threo-DOPS Antinociceptive Action on Naloxone (Morphine Antagonist)
(§2) Tests were conducted in the same way as the tail flick test method and the kaolin-induced writhing test method in Test Example 1 described above. In the tail flick test method, however, 1 mg/kg of naloxone was subcutaneously administered 40 minutes after administration of 400 mg/kg of L-threo-DOPS, and the latency was measured 60 minutes after the 400 mg/kg L-threo-DOPS administration. The obtained data are shown in terms of change in latency (Δ latency). In the kaolin-induced writhing test, 0.01 mg/kg of naloxone was subcutaneously administered 55 minutes after administration of 400 mg/kg of L-threo-DOPS, and kaolin was administered 5 minutes after the administration of naloxone.
(§3) The results obtained in the tests are all shown by means ±standard error. Statistically significant difference between the groups was determined by Student's t-test or Newman-Keuls test. When P<0.05, the difference was judged to be significant.
(§4) The symbol V denotes the group administered with vehicle only, and the symbol N.S. denotes that there is no significant difference as compared to the control group.

[3] = tested on: mice; assay: Tail flick test, subcutaneous L-threo-DOPS; format: in vivo
Description: Thermal stimulation at a certain level was given onto mice at the tail, and the latency until the animal flicked the tail out of the thermal stimulation was measured. The analgesic effect was judged in terms of prolonged latency by administration of a drug (tail-flick test, see European Journal of Pharmacology, 212, 1992).
The test was conducted by using a tail flick analgesia meter (MK-330, Muromachi Kikai). The intensity of the beam was adjusted to produce a control latency of 2 to 2.5 seconds, and a cut-off time was set to be 8 seconds. The experimental data obtained were shown in terms of latency (second).
L-Threo-DOPS was suspended in a 0.2% Tween 80 solution and the resulting suspension was subcutaneously administered in a dose of 100 to 400 mg/kg. The tail flick latency was then measured with passage of time to determine antinociceptive action, namely, analgesic activity.
(§5) In the left graph, the symbol .largecircle. denotes the group administered with vehicle only (n=8), and the symbol .circle-solid. denotes the group administered with L-threo-DOPS (n=5). […] In the right graph, the symbol V denotes the group administered with vehicle only. *P<0.05, **P<0.01 (when compared to the group administered with vehicle only).
(§6) The results obtained in the respective tests are all shown by means ±standard error. Statistically significant difference between the groups was determined by Student's t-test or Newman-Keuls test. When P<0.05, the difference was judged to be significant.

[4] = tested on: mice; assay: Effect of phentolamine on L-threo-DOPS antinociception, tail flick test; format: in vivo
Description: Effect of Phentolamine as an α-Adrenaline Receptor Blocker on the Antinociceptive Action of L-threo-DOPS
Phentolamine was administered intracerebral-ventricularly (i.c.v.) or intrathecaly (i.th.) in a dose of 0.1 to 1 μg/mouse, 40 minutes after L-threo-DOPS was administered in a dose of 400 mg/kg. Then, the effect of phentolamine against L-threo-DOPS-induced antinociceptive action was determined in the tail flick test.
Statistically significant difference between the groups was determined by Student's t-test or Newman-Keuls test. When P<0.05, the difference was judged to be significant.
The results in FIG. 5 indicates change in latency (Δ latency, second) 60 minutes after the L-threo-DOPS administration.

[5] = Acute toxicity (LD50) in mouse; conditions: in vivo
[6] = tested on: mouse; assay: Acute toxicity (LD50) in mouse; conditions: oral and intraperitoneal
[7] = tested on: mice; assay: Kaolin-induced writhing test; format: in vivo
From the text: (§7) Mice were used for the kaolin-induced writhing test and the formalin test, wherein animal model for assessment of chronic pain is used [Pain, 51, 195-198 (1992)].
b) Kaolin-Induced Writhing Test
The test was proposed by Fujiyoshi, T. et al. as a nociceptive test for the assessment of endogenous bradykinin-induced pain [Fujiyoshi et al., Agents and Actions, 27, 332 (1989)]. In the present invention, a method somewhat modified from the Fujiyoshi test was used for the assessment. That is, a suspension of 125 mg/kg of kaolin in 0.2% Tween 80 solution was intraperitoneally administered to mice in a dose of 0.25 ml/10 g. Immediately thereafter, the total number of writhing reactions which were observed during 20 minutes was counted.
Thirty minutes, 1 hour and 2 hours before administration of kaolin, L-threo-DOPS was subcutaneously administered in a dose ranging from 100 to 400 mg/kg.
as §5, with “only,” for “only (n=8),”, “L-threo-DOPS.” for “L-threo-DOPS (n=5).”, “The” for “In the right graph, the”, “only (n=5). **P<0.01, ***P<0.001” for “only. *P<0.05, **P<0.01”
as §6

[8] = tested on: mice; assay: Formalin-induced nociceptive test; format: in vivo
Description: as §7
c) Formalin-Induced Nociceptive Test
Formalin (0.5%, 25 μl) was administered subcutaneously into a mouse at the sole of the right hind paw. Immediately thereafter, the time required for the mouse to conduct licking or biting behavior was counted for 30 minutes at intervals of 5 minutes. The results are shown separately for Phase I (0-5 minutes after the formalin administration) and Phase II (10-30 minutes after the formalin administration). […]
The symbol V denotes the group administered with vehicle only. *P<0.05 (as compared to the group administered with vehicle only).
as §6

[9] = tested on: mice; assay: Effect of benserazide on L-threo-DOPS antinociception, tail flick test; format: in vivo; conditions: L-threo-DOPS 400 mg/kg s.c., 60 minutes
Description: Effect of Benserazide (Peripheral Nerve Decarboxylase Inhibitor) on the Antinociceptive Action of L-threo-DOPS
Benserazide was administered subcutaneously in a dose of 1 mg/kg, 60 minutes before the subcutainious administration of L-threo-DOPS (400 mg/kg). Alternatively, benserazide was administered intracerebralventricularly at a dose of 25 μg/mouse, 30 minutes before L-threo-DOPS was subcutaneously administered in a dose of 400 mg/kg. The effect of benserazide on the L-threo-DOPS-induced antinociceptive action 60 minutes after the L-threo-DOPS administration was examined according to the tail flick test.
(§8) The results obtained in this test are all shown by means ±standard error. Statistically significant difference between the groups was determined by Student's t-test or Newman-Keuls test. When P<0.05, the difference was judged to be significant.
The results in FIG. 6 indicate change in latency (Δ latency, second) 60 minutes after the L-threo-DOPS administration. […] The symbol V denotes the group administered with vehicle only, and the symbol N.S. denotes that there is no significant difference as compared to the control group.

[10] = tested on: mice; assay: Tail flick test, oral L-threo-DOPS; format: in vivo
Description: Antinociceptive Action of L-threo-DOPS by Oral Administration
L-Threo-DOPS was orally administered to mice in doses of 200, 400 and 800 mg/kg, and was examined for the antinociceptive action according to the tail flick test method.
as §8
The results in FIG. 7 indicate, in the tail flick test, a relationship between the dose of L-threo-DOPS when orally administered and change in latency (Δ latency, second) 60 minutes after the L-threo-DOPS administration (n=6). *P<0.05, **P<0.01 (as compared to the control group).

[11] = tested on: mice; assay: Effect of naloxone on L-threo-DOPS antinociception, kaolin-induced writhing test; format: in vivo; conditions: L-threo-DOPS 400 mg/kg; naloxone 0.01 mg/kg s.c.; 60 minutes
Description: as §1, §2, §3, §4

[12] = 100 to 400 mg/kg s.c., 60 minutes after administration

N[C@H](C(=O)O)[C@H](O)c1ccc(O)c(O)c1 (relative stereo) [threo-DOPS, threo-3-(3,4-dihydroxyphenyl)serine]
fate after administration ([1]; known, U.S. Pat. No. 4,497,826): transported to a brain that is a site on which threo-DOPS acts, and then decarboxylated therein into a corresponding noradrenaline
transportation into brain in combination with decarboxylase inhibitor ([1]; with decarboxylase inhibitor, J. Pharm. Pharmacol., 1981, 33, 772-777): can be accelerated
type of analgesic activity [2]: non-narcotic
analgesic effect in presence of naloxone (summary) ([2]; morphine antagonist naloxone, tail flick and kaolin tests): not antagonized by morphine antagonist, naloxone
analgesic effect in tail-flick test (summary) ([3]; s.c., mice): exhibits the analgesic effect dose-dependently
analgesic effect in presence of phentolamine (summary) ([4]; adrenaline blocker phentolamine administered in the brain): suppressed
LD50 ([5]; ip): ~10000 mg/kg
LD50 ([5]; po): ≥ 10000 mg/kg
toxicity [6]: extremely weak toxicity
analgesic effect in kaolin-induced writhing test (summary) ([7]; s.c. and oral, mice): dose- dependently observed
analgesic effect in formalin test (summary) ([8]; s.c. and oral, mice): dose- dependently observed

Cc1ccc(N(CC2=NCCN2)c2cccc(O)c2)cc1 [phentolamine]
tail flick latency, phentolamine alone ([4]; phentolamine 1 μg/mouse i.c.v.): did not affect the latency

N[C@H](C(=O)O)[C@H](O)c1ccc(O)c(O)c1 [L-threo-DOPS]
antinociceptive action in presence of benserazide ([9]; benserazide 25 μg/mouse i.c.v.): potently inhibited
antinociceptive action in presence of benserazide ([9]; benserazide 1 mg/kg s.c.): did not give any significant effect
effectiveness by oral administration ([10]; oral): also effective when orally administered
time after administration at which significant effect was observed ([10]; oral, 200, 400 and 800 mg/kg): ≥ 40 min
time of maximum antinociceptive effect ([10]; oral, 200, 400 and 800 mg/kg): 60 min
antinociceptive action, dose dependence (oral tail flick) ([10]; oral, 200 to 800 mg/kg): dose-dependently
antinociceptive action in presence of naloxone (tail flick) ([2]; L-threo-DOPS 400 mg/kg, naloxone 1 mg/kg s.c., 60 minutes): hardly affected by morphine antagonist, naloxone
type of analgesic activity [2]: non-narcotic analgesic activity; also recorded: non-opiate type antinociceptive action
time after administration at which significantly prolonged tail flick latency was observed ([3]; 400 mg/kg s.c.): ≥ 40 min
time of maximum tail flick latency ([3]; 400 mg/kg s.c.): one
tail flick latency ([3]; 400 mg/kg s.c., 40 or more minutes after administration): significantly prolonged latency
tail flick latency, significance of effect ([3]; 400 mg/kg s.c., 2 hours after administration): no significant effect was observed
antinociceptive action, dose dependence (tail flick) [3, 12]: dose-dependent in the range of 100 to 400 mg/kg
inhibitory effect of phentolamine on L-threo-DOPS-induced prolongation of latency ([4]; L-threo-DOPS 400 mg/kg s.c., phentolamine 0.1 μg/mouse i.c.v.): also observed
prolongation of latency by L-threo-DOPS in presence of phentolamine ([4]; L-threo-DOPS 400 mg/kg s.c., phentolamine 1 μg/mouse i.c.v.): almost completely inhibited
antinociceptive action of L-threo-DOPS in presence of phentolamine, right graph of FIG. 5 ([4]; L-threo-DOPS 400 mg/kg s.c., phentolamine 1 μg/mouse, printed intracerebralventricularly (right graph)): partially but significantly inhibited
antinociceptive action, kaolin-induced writhing ([7]; 200 mg/kg s.c.): significant antinociceptive action
count of kaolin-induced writhing response ([7]; 200 mg/kg s.c.): decreased to the half
decrease in writhing count ([7]; 200 mg/kg s.c., 30 minutes after administration): the observed decrease was insignificant
decrease in writhing count ([7]; 200 mg/kg s.c., 2 hours after administration): the observed decrease was insignificant
effect on writhing, dose dependence [7, 12]: dose-dependent in the range of 100 to 400 mg/kg
effect of increased dose in formalin test ([8]; 400 mg/kg s.c., not shown in graphs): no better effect was obtained
time required for nociceptive reaction (licking and biting), Phase I ([8]; 100 to 200 mg/kg s.c., 0-5 minutes after formalin): did not affect the time required for the nociceptive reaction
time required for nociceptive reaction (licking and biting), Phase II ([8]; 100 to 200 mg/kg s.c., 10-30 minutes after formalin): dose-dependently inhibited the reaction
antinociceptive action in presence of naloxone (kaolin-induced writhing) [11]: hardly affected by morphine antagonist, naloxone
